Laboratory results as given in US6132697A, “Radiopharmaceutical compositions capable of localizing at sites of thrombus” (G. D. Searle & Co., priority 1997, dated 2000).

What was measured:
GPIIb/IIIa receptors = molecular target: T1, GPIIb/IIIa receptors (Homo sapiens, UniProt P05106+P08514); test: ADP induced platelet aggregation inhibition assay in platelet rich plasma; format: cell-based; conditions: read-out: IC50 (half-maximal inhibition of platelet aggregation)
T1 construct: endogenous in cells; host or cells: platelets in platelet rich plasma from healthy volunteer donors
T1 sequence (P08514 32-887 limits assumed): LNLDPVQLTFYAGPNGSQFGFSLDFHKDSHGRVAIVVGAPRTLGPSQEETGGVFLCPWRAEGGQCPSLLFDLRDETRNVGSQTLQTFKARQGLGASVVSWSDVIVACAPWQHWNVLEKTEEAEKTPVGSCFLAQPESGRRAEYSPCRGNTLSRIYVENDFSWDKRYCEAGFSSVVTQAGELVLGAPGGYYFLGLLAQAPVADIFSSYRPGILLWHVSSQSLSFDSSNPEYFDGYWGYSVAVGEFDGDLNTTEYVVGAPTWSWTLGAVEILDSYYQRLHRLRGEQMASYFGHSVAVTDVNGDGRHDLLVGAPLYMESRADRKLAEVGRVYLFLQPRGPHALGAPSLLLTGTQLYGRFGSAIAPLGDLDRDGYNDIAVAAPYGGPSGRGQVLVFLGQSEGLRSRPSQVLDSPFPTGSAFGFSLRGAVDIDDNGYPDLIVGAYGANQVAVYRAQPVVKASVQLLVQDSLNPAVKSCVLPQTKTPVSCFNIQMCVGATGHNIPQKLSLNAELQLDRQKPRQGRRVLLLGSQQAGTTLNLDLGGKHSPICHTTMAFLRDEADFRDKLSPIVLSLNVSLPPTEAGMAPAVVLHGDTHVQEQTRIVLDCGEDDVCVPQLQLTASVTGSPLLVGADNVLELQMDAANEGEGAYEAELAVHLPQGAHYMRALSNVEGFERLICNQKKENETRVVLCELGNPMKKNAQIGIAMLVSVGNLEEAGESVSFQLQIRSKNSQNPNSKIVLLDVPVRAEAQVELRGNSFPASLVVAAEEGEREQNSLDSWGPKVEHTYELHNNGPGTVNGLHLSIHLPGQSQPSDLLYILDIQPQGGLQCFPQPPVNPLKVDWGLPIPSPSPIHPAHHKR
T1 sequence (P08514 891-1039 partner limits assumed): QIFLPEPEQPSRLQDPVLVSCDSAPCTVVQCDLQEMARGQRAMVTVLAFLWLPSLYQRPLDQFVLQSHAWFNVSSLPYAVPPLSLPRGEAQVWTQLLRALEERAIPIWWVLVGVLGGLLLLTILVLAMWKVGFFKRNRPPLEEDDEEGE
T1 sequence (P05106 27-788): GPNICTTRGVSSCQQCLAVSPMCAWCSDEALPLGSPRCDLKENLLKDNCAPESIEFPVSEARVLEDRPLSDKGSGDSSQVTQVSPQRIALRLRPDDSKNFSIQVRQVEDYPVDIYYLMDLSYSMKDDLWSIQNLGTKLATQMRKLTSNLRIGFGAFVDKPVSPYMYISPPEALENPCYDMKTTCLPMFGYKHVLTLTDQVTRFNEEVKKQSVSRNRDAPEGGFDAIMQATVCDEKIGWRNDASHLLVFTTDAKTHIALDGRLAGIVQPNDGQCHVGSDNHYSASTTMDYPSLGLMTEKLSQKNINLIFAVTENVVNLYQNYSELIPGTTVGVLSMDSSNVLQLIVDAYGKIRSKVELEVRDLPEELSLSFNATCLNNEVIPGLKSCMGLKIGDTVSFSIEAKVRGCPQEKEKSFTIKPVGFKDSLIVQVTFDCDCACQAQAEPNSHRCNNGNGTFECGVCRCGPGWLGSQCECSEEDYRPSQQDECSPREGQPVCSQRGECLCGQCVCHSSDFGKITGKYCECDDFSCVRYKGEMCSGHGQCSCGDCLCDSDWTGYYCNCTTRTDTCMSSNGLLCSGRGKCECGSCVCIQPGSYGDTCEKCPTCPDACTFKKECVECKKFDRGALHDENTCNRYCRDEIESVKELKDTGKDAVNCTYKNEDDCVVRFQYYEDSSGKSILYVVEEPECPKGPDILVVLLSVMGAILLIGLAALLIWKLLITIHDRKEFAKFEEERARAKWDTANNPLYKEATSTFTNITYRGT
Protocol: This Example describes Platelet Aggregation Inhibition Assays of the compound of Example 2 to illustrate that the compound binds to GPIIb/IIIa receptors when radiolabelled.
Healthy aspirin free donors were randomly selected from a pool of volunteers. The harvesting of platelet rich plasma and subsequent ADP induced platelet aggregation assays were performed as described in Zucker, M. B. "Platelet Aggregation Measured by the Photometric Method", Methods in Enzymology 169 (1989):117-133. Standard venipuncture techniques using butterfly allowed the withdrawal of 45 mL of whole blood into a 60 mL syringe containing 5 mL 3.8% trisodium citrate. Following thorough mixing in the syringe, the anti-coagulated whole blood was transferred to a 50 mL conical polyethylene tube. The blood was centrifuged at room temperature for 12 minutes at 200xg to sediment non-platelet cells. Platelet poor plasma was obtained from a second centrifugation of the remaining blood at 2000xg for 15 minutes. Platelet counts are typically 300,000 to 500,000 per microliter. […] Aggregation was recorded for 3 minutes in a Payton dual channel aggregometer (Payton Scientific, Buffalo, N.Y.). […] The compounds were tested in duplicate and half-maximal inhibition (IC50) was calculated graphically from the dose response curve. […]

[1] = Biodistribution in rat model (radioactivity in organs, excretion); format: in vivo, Sprague-Dawley rats
Protocol: This study was designed to evaluate the biodistribution pattern of the compound of Example 2 to determine the clearance profile from blood, route of excretion and in vivo stability of the complex by HPLC analysis of urine samples, in a rat model.
The compound of Example 2 was injected ([…], 1.5-3.5 mCi/mL) into Sprague-Dawley rats. Groups of three animals were sacrificed at the time points indicated below to determine the amount of radioactivity remained in the organs. Results: (to be filled)
The compound of Example 7 was injected ([…], 1.5-3.5 mCi/mL) into Sprague-Dawley rats. Groups of three animals were sacrificed at the time points indicated below to determine the amount of radioactivity (%ID/g) remaining in the organs.
The compound of Example 12 was injected into Sprague-Dawley rats according to the procedure outlined in Example 5. The amount of radioactivity present in the major excretionary organs at different time points (1, 4 and 24 hours) are given below.
The compound of Example 19 was injected into Sprageue-Dawley rats according to the procedure outlined earlier. The amount of radioactivity present in the major excretionary organs at different time points (1, 4 and 24 hours) are given below.
The compound of Example 26 was injected ([…], 1.5-3.5 mCi/mL) into Sprague-Dawley rats. Groups of three animals were sacrificed at the time points indicated below to determine the amount of radioactivity remaining in the organs.

[2] = test system: pulmonary emboli (PE) and/or deep vein thrombus (DVT); test: Canine model for pulmonary embolism / deep vein thrombus (embolization coils); format: in vivo, dog; conditions: sacrifice at 3 hours
Protocol: These studies are designed to serve as a preliminary screen of various radiolabeled pharmaceuticals for the purpose of imaging pulmonary emboli (PE) and/or deep vein thrombus (DVT).
Procedure: The dog is first anesthetized with an intravenous injection of sodium pentobarbital (30 mg/kg). An IV catheter is placed into the jugular vein and advanced to the pulmonary artery. Visualization of the catheter placement is facilitated using fluoroscopy. Embolization coils of various sizes (3-8 mm) are next released via the catheter using the appropriate guide wire, and localization of the coils is followed by fluoroscopy. After a satisfactory number of coils (3-5) have been placed and visualized, the catheter is removed and the vein ligated. The formation of a deep vein thrombus (DVT) in the saphenous vein is facilitated by the placement of a 16 gauge needle into the vein followed by the passage of a 5 mm embolization coil through the needle directly into the vein.
IV injection (cephalic vein) of the radiolabeled test article occurs approximately 30-45 minutes post placement of the embolization coils. Approximate activity injected is 2.5-3.5mCi. Beginning at 30 minutes post injection and continuing for several hours at 30 minute intervals, the animal is scintigraphed in both the lateral and supine positions.
At the conclusion of the imaging portion of the study (3 hours) the animal is sacrificed, and selected tissues removed for scintillation counting. The coils are located, removed and quantitated for uptake of the radiotracer. From these values is determined the target:non-target ratios and blood clearance of the test article.
The compound of claim 19 was administered to a canine according to the general protocol described in Example 16.

Structure (SMILES) | IC50 (GPIIb/IIIa receptors) | radioactivity in organ: Blood ([1]; 1 hour) | radioactivity in organ: Kidney ([1]; 1 hour) | radioactivity in organ: Liver ([1]; 1 hour) | radioactivity in organ: Sml. Int & Contents ([1]; 1 hour) | radioactivity in organ: Blood ([1]; 4 hours) | radioactivity in organ: Kidney ([1]; 4 hours) | radioactivity in organ: Liver ([1]; 4 hours) | radioactivity in organ: Sml. Int & Contents ([1]; 4 hours) | radioactivity in organ: Blood ([1]; 24 hours) | radioactivity in organ: Kidney ([1]; 24 hours) | radioactivity in organ: Liver ([1]; 24 hours) | radioactivity in organ: Sml. Int & Contents ([1]; 24 hours) | % ID excreted in the feces at 24 hr. [1] | % ID excreted in the urine at 24 hr. [1] | other results
CN(C)CCNC(=O)C(CCC(=O)O)NC(=O)C(CCCCNC(=O)CCNC(=O)C(CC(=O)O)NC(=O)CCC(=O)Nc1ccc(C(=N)N)cc1)NC(=O)CSC1CCCCO1 [Example 18, ABAS-L-Asp-β-Ala-ε-L-Lys(α-S-THP-mercaptoacetyl)-Glu-dme] | 490 nM |  |  |  |  |  |  |  |  |  |  |  |  |  |  | 
CN(C)CC[N]1C(=O)C(CCC(=O)O)[N]2C(=O)C(CCCCNC(=O)CCNC(=O)C(CC(=O)O)NC(=O)CCC(=O)Nc3ccc(C(=N)N)cc3)[N]3C(=O)C[S][99Tc-]132=[O] (centres unmarked) [Example 19] |  | 0.067 % ID/g | 0.864 % ID/g | 0.158 % ID/g | 0.645 % ID/g | 0.011 % ID/g | 0.520 % ID/g | 0.024 % ID/g | 0.015 % ID/g | 0.004 % ID/g | 0.241 % ID/g | 0.009 % ID/g | 0.002 % ID/g | 32.758 % ID | 41.217 % ID | % ID/g ([2]; Blood): 0.0018 % ID/g; % ID/g ([2]; Clot 1 (DVT)): 0.0828 % ID/g; Clot/blood ([2]; Clot 1 (DVT)): 43; % ID/g ([2]; Clot 2 (PE)): 0.0114 % ID/g; Clot/blood ([2]; Clot 2 (PE)): 6; % ID/g ([2]; Clot 3 (PE)): 0.125 % ID/g; Clot/blood ([2]; Clot 3 (PE)): 65; % ID/g ([2]; Clot 4 (PE)): 0.142 % ID/g; Clot/blood ([2]; Clot 4 (PE)): 74; % ID/g ([2]; Clot 5 (PE)): 0.1232 % ID/g; Clot/blood ([2]; Clot 5 (PE)): 64
CN(C)CC[N]1C(=O)C(CCC(=O)O)[N]2C(=O)C(CCCC(=O)NCCCCC(NC(=O)C(CC(=O)O)NC(=O)CCC(=O)Nc3ccc(C(=N)N)cc3)C(=O)O)[N]3C(=O)C[S][99Tc-]132=[O] (centres unmarked) [Example 26] |  | 0.067 % ID/g | 0.628 % ID/g | 0.043 % ID/g | 0.206 % ID/g | 0.011 % ID/g | 0.536 % ID/g | 0.015 % ID/g | 0.031 % ID/g | 0.007 % ID/g | 0.227 % ID/g | 0.014 % ID/g | 0.009 % ID/g | 16.277 % ID | 54.708 % ID | 
CN(C)CC[N]1C(=O)C(CCC(=O)O)[N]2C(=O)C(CCCC(=O)NCCCCC(NC(=O)C(CC(=O)O)NC(=O)CCC(=O)Nc3ccc(C(=N)N)cc3)C(=O)O)[N]3C(=O)C[S][TcH]132=[O] (centres unmarked) [Example 26] | 290 nM |  |  |  |  |  |  |  |  |  |  |  |  |  |  | 
